As usually defined, the Ki is the equilibrium dissociation constant of an inhibitor or competing ligand from its target. The low end stands for a stronger hold on the target, the high end for a looser hold on the target.

Each structure is given as a SMILES string. Bounds are passed on as bounds.

Results on eleven molecules are retold here after US7446199B2, “Compositions useful as inhibitors of protein kinases” (Vertex Pharmaceuticals Incorporated, priority 2003, dated 2008).

Common to all, as to type: biochemical
For one test, the target named is T1, c-KIT (Homo sapiens, UniProt P10721).
T1 construct: 0.02% BSA and 25 nM c-KIT
T1 sequence (P10721 26-976): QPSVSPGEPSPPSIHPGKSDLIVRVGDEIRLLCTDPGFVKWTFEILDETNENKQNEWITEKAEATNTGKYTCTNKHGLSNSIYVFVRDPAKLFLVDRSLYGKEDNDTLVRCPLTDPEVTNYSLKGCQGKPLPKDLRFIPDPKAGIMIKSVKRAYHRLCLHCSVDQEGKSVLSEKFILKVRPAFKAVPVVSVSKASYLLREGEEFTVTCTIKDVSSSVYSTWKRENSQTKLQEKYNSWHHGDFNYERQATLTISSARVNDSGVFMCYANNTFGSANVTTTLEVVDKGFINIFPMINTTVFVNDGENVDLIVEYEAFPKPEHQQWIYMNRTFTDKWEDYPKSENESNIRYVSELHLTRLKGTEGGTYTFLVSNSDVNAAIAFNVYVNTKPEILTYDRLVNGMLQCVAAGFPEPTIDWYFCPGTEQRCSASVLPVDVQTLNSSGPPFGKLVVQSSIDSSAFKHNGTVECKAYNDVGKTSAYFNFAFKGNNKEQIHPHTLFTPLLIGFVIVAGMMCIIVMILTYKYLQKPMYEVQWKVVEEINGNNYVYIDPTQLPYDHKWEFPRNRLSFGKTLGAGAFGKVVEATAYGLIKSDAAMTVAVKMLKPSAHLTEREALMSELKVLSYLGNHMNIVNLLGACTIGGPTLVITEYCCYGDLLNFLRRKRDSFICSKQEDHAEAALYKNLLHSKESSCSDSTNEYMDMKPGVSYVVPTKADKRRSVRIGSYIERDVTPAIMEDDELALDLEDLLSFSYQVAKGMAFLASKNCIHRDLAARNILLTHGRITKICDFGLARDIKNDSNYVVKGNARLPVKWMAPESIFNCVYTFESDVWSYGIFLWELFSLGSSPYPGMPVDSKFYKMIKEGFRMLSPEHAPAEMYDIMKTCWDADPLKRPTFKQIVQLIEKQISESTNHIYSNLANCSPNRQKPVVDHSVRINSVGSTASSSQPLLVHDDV
As to the kind of experiment: Inhibition of c-KIT, radiometric filter-binding assay. The following applies: 700 μM ATP, 0.5 mg/mL pE4Y, room temperature. An outline of the steps: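 Radiometric filter-binding: 25 nM c-KIT (enzyme in the Solution 2 mix) with poly(Glu,Tyr) 4:1 substrate at 0.5 mg/mL and [γ-^33P]ATP at 700 μM (both final), in HEPES pH 7.5/MgCl2/NaCl/DTT/BSA with 2.5% DMSO. Incubated 20 min at room temperature, stopped with TCA, and ^33P incorporation counted on filters. 12-point titration, final compound typically 0.01-5 μM; IC50 or Ki from curve fit.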

A further test concerns the target KDR (Homo sapiens, UniProt P35968). As to the kind of experiment: KDR enzyme assay, coupled enzyme assay. As to conditions: 300 μM ATP, 10 μM poly E4Y, 30 nM KDR, 37° C. The procedure, abridged:
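Coupled enzyme (PK/LDH, NADH) assay with 30 nM KDR in 200 mM HEPES 7.5, 10 mM MgCl2, 25 mM NaCl, 1 mM DTT, 1.5% DMSO; 300 μM ATP, 10 μM poly E4Y. Compound at 30 μM final, preincubated ~10 min at 37 °C before ATP start; rates read over 5 min at 37 °C.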

In another test the target is T2, JAK3 (Homo sapiens, UniProt P52333).
T2 sequence (P52333 1-1124): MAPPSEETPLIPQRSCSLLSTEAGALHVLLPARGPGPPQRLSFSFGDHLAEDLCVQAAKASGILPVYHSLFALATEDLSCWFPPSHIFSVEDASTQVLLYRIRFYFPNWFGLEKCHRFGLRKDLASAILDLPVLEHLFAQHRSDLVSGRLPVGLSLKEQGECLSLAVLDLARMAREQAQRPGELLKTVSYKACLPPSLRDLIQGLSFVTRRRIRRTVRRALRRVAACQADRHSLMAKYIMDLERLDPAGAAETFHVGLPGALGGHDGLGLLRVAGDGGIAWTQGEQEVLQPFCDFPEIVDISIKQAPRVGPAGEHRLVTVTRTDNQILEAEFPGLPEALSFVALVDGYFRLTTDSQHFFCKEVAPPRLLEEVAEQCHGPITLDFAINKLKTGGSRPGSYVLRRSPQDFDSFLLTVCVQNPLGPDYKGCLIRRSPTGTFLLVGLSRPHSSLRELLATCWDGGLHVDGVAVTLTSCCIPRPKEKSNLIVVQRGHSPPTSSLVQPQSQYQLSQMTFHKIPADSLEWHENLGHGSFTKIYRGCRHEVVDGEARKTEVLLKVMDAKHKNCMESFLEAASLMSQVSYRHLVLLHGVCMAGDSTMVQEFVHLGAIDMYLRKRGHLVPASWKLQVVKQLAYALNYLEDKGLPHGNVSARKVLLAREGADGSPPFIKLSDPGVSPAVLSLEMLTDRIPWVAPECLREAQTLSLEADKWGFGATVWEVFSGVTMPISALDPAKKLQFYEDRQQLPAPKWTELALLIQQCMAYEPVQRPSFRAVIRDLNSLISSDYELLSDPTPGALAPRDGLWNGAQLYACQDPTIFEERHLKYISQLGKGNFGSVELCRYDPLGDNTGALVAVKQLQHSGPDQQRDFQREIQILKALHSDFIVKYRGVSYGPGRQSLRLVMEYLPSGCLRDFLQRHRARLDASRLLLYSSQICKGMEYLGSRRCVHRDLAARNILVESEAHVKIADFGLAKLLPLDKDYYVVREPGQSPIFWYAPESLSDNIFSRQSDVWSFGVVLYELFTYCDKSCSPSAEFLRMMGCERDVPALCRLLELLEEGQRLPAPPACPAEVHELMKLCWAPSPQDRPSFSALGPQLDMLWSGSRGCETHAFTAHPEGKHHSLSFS
As to the kind of experiment: JAK3 inhibition assay (ELISA, Poly (Glu, Ala, Tyr) coated plates). The following applies: 2 mM ATP, 60 minutes at 30° C. An outline of the steps:
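ELISA on Poly(Glu,Ala,Tyr) 6:3:1-coated plates with 2 mM ATP and 5 mM MgCl2. JAK enzyme started the reaction, run 60 min at 30° C. Phosphotyrosine was detected with HRP-conjugated 4G10 antibody and TMB, read at 450 nm, and IC50 was derived from optical densities.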

Chain of KDR (P35968 20-1356): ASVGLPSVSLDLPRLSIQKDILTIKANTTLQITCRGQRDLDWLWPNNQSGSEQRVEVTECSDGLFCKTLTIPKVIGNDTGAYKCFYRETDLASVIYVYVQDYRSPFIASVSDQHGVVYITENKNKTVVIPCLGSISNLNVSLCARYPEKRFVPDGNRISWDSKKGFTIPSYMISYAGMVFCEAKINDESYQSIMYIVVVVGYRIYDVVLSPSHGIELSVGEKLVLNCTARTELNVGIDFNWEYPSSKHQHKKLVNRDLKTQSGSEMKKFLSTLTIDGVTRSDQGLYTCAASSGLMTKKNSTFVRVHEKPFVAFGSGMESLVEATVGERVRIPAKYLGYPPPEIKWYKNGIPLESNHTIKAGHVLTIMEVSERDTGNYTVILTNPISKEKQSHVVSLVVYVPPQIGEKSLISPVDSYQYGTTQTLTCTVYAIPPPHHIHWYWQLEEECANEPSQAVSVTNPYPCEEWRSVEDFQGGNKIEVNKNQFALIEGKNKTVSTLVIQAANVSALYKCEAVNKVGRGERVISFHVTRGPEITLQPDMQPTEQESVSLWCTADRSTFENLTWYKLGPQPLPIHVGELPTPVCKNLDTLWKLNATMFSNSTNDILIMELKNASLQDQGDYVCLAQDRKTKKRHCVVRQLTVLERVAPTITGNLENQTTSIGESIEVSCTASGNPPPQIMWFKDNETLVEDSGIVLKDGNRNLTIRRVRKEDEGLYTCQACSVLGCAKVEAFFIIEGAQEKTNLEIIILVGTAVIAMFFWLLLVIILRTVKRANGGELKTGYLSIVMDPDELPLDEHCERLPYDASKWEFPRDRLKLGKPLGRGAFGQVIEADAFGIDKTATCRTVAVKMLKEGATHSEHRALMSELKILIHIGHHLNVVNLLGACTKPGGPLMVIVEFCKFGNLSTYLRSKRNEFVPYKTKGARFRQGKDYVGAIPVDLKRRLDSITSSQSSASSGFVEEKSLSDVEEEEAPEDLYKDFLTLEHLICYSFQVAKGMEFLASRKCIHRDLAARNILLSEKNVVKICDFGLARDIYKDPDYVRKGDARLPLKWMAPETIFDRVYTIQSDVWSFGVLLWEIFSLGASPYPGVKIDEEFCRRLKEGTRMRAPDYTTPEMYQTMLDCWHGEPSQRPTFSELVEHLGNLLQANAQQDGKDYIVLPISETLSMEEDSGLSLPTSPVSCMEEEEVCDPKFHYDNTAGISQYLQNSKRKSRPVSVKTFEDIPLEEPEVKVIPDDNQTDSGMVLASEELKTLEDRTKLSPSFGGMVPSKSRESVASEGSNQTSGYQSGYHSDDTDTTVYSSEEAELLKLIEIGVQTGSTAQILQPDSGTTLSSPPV

Consider `OC1CCN(c2ccc(-c3cnc4[nH]cc(-c5nncn5-c5cccc(F)c5F)c4c3)cn2)CC1` [Compound 116, 5′-{3-[4-(2,3-Difluoro-phenyl)-4H-[1,2,4]triazol-3-yl]-1H-pyrrolo[2,3-b]pyridin-5-yl}-3,4,5,6-tetrahydro-2H-[1,2′]bi-pyridinyl-4-ol], for which the Ki on c-KIT, on KDR and on JAK3 was 200 to 1000 nM each time.
`Fc1cccc(-c2cnoc2-c2c[nH]c3ncc(-c4ccc(N5CCNCC5)cc4)cc23)c1F` [Compound 68, 3-[4-(2,3-Difluoro-phenyl)-isoxazol-5-yl]-5-(4-piperazin-1-yl-phenyl)-1H-pyrrolo[2,3-b]pyridine]: the Ki at c-KIT, at KDR and at JAK3 was under 200 nM each time.
For `Oc1cccc(-c2cnc3[nH]cc(-c4oncc4-c4cccc(F)c4F)c3c2)c1` [Compound 87, 3-{3-[4-(2,3-Difluoro-phenyl)-isoxazol-5-yl]-1H-pyrrolo [2,3-b]pyridin-5-yl}-phenol], the Ki on c-KIT was under 200 nM; on KDR, 200 to 1000 nM; on JAK3, under 200 nM.
For the molecule `Fc1cccc(-n2cnnc2-c2c[nH]c3ncc(-c4ccc(CN5CCOCC5)cc4)cc23)c1F` [Compound 109, 3-[4-(2,3-Difluoro-phenyl)-4H-[1,2,4]triazol-3-yl]-5-(4-morpholin-4-ylmethyl-phenyl)-1H-pyrrolo[2,3-b]pyridine], the Ki was under 200 nM on c-KIT, 200 to 1000 nM at KDR and 200 to 1000 nM at JAK3.
For `CN1CCN(c2ccc(-c3cnc4[nH]cc(-c5nncn5-c5cccc(F)c5F)c4c3)cn2)CC1` [Compound 112], the Ki was 200 to 1000 nM at c-KIT, 200 to 1000 nM on KDR and 1000 to 12500 nM at JAK3.
With `CC(=O)Nc1ccc(-c2cnc3[nH]cc(-c4oncc4-c4cccc(F)c4F)c3c2)cc1` [Compound 95, N-(4-{3-[4-(2,3-Difluoro-phenyl)-isoxazol-5-yl]-1H-pyrrolo[2,3-b]pyridin-5-yl}-phenyl)-acetamide], the Ki is under 200 nM on c-KIT, 200 to 1000 nM at KDR and under 200 nM at JAK3.
As for `CN1CCN(Cc2ccc(-c3cnc4[nH]cc(-c5oncc5-c5cccc(F)c5F)c4c3)cc2)CC1` [Compound 94, 3-[4-(2,3-Difluoro-phenyl)-isoxazol-5-yl]-5-[4-(4-methyl-piperazin-1-ylmethyl)-phenyl]-1H-pyrrolo[2,3-b]pyridine], the Ki at c-KIT, at KDR and at JAK3 was under 200 nM each time.
Regarding `Fc1cccc(-c2cnoc2-c2c[nH]c3ncc(-c4cncnc4)cc23)c1F` [Compound 85, 3-[4-(2,3-Difluoro-phenyl)-isoxazol-5-yl]-5-pyrimidin-5-yl-1H-pyrrolo[2,3-b]pyridine], the Ki was under 200 nM at c-KIT, 1000 to 12500 nM at KDR and 200 to 1000 nM on JAK3.
Take `COc1cncc(-c2cnc3[nH]cc(-c4oncc4-c4cccc(F)c4F)c3c2)c1` [Compound 96, 3-[4-(2,3-Difluoro-phenyl)-isoxazol-5-yl]-5-(5-methoxy-pyridin-3-yl)-1H-pyrrolo[2,3-b]pyridine]: the Ki on c-KIT, on KDR and on JAK3 was under 200 nM in each case.
For the molecule `CN1CCCN(c2ccc(-c3cnc4[nH]cc(-c5nncn5-c5cccc(F)c5F)c4c3)cn2)CC1` [Compound 117, 3-[4-(2,3-Difluoro-phenyl)-4H-[1,2,4]triazol-3-yl]-5-[6-(4-methyl-[1,4]diazepan-1-yl)-pyridin-3-yl]-1H-pyrrolo [2,3-b]-pyridine], the Ki at c-KIT lay within 200 to 1000 nM; at KDR, 200 to 1000 nM; at JAK3, 1000 to 12500 nM.
Regarding `Fc1cccc(-c2cnoc2-c2c[nH]c3ncc(-c4ccccn4)cc23)c1F` [Compound 73, 3-(4-(2,3-Difluoro-phenyl)-isoxazol-5-yl)-5-pyridin-2-yl-1H-pyrrolo[2,3-b]pyridine], the Ki was under 200 nM on c-KIT, 1000 to 12500 nM at KDR and under 200 nM at JAK3.
